Assays:
[1] = test system: PC-3; test: Cytotoxicity against human PC-3 cells assessed as reduction in cell viability incubated for 24 hrs by MTT assay; details: PC-3, 24 h
[2] = test system: DU-145; test: cells; details: Homo sapiens, DU-145, 24 h
Description: Cytotoxicity against human DU-145 cells assessed as inhibition of cell growth incubated for 24 hrs by MTT assay

[3] = test system: PC-3; test: Cytotoxicity against human PC-3 cells assessed as reduction in cell growth incubated for 72 hrs by SRB assay; type: functional, cell-based; details: PC-3, 72 h
[4] = test system: HepG2; test: Cytotoxicity against human HepG2 cells assessed as reduction in cell viability incubated for 72 hrs by SRB assay; type: functional, cell-based; details: HepG2, 72 h
[5] = test system: MDA-MB-231; test: Cytotoxicity against human MDA-MB-231 cells assessed as inhibition of cell growth incubated for 72 hrs by SRB assay; type: functional, cell-based; details: MDA-MB-231, 72 h
[6] = test system: NCI-H69; test: Antiproliferative activity against human NCI-H69 cells assessed as reduction in cell growth; type: functional, cell-based
[7] = test system: M14; test: Antiproliferative activity against human M14 cells assessed as reduction cell viability incubated for 48 hrs by MTT assay; type: functional, cell-based; details: M14, 48 h
[8] = test system: A-375; test: Cytotoxicity against human A-375 cells assessed as inhibition of cell growth; type: functional, cell-based
[9] = test system: M14; test: Antiproliferative activity against human M14 cells assessed as inhibition of cell growth measured after 48 hrs by SRB assay; type: functional, cell-based; details: M14, 48 h
[10] = test system: PC-3; test: Cytotoxicity against human PC-3 cells assessed as inhibition of cell growth; type: functional, cell-based
[11] = test system: DU-145; test: Cytotoxicity against human DU-145 cells assessed as inhibition of cell growth; type: functional, cell-based
[12] = test system: LNCaP C4-2; test: Cytotoxicity against human LNCaP C4-2 cells assessed as cell growth inhibition incubated for 24 hrs by MTT assay; type: functional, cell-based; details: LNCaP C4-2, 24 h

How did the IC50 [1] turn out when `Cc1cccc(Nc2nc3nonc3nc2N/N=C/c2cc3c(cc2[N+](=O)[O-])OCO3)c1C` was run?
The IC50 was 2.1 µM.

And the IC50 [2]?
The IC50 was 2.6 µM.

`N#Cc1c(-c2ccc(Br)cc2)cc(-c2ccc(OCc3ccc(F)cc3)cc2)[nH]c1=S` was tested. Which IC50 [3] did it give?
The IC50 was 23 µM.

What about the IC50 [4] of the same compound?
Its IC50 is 23 µM.

What about the IC50 [5] of the same compound?
Its IC50 is 23 µM.

With `Cc1ccc(-c2ccc(/C=N/Nc3nc4nonc4nc3Nc3ccc(Br)cc3)o2)cc1Cl` as the compound, how does the IC50 [1] read?
The IC50 was 3.5 µM.

And the IC50 [2]?
Its IC50 is 3.3 µM.

`COc1ccc(-c2cc(-c3ccc(OCc4ccc(F)cc4)cc3)[nH]c(=S)c2C#N)cc1` was tested. Which IC50 [3] did it give?
The IC50 was 23 µM.

What about the IC50 [4] of the same compound?
The IC50 was 23 µM.

What about the IC50 [5] of the same compound?
Its IC50 is 23 µM.

How did the IC50 [3] turn out when `N#Cc1c(-c2ccccc2)cc(-c2ccc(OCc3ccc(F)cc3)cc2)[nH]c1=S` was run?
The IC50 was 23 µM.

What about the IC50 [4] of the same compound?
Its IC50 is 23 µM.

And the IC50 [5]?
Its IC50 is 23 µM.

Which IC50 [6] does the source give for `Oc1ccc(CCCCCc2ccc(O)c(O)c2)cc1O` here?
The IC50 was 3 µM.

Which results are given for `N#Cc1c(-c2ccc(F)cc2)cc(-c2ccc(OCc3ccc(F)cc3)cc2)[nH]c1=S`?
IC50 [3]: 23 µM; IC50 [4]: 23 µM; IC50 [5]: 23 µM

For `Oc1ccc(CCCc2ccc(O)c(O)c2)cc1O`, which IC50 [6] is on record?
The IC50 was > 100 µM.

Which IC50 [3] does the source give for `N#Cc1c(-c2ccc(Cl)cc2)cc(-c2ccc(OCc3ccc(F)cc3)cc2)[nH]c1=O` here?
Its IC50 is 14.4 µM.

What about the IC50 [4] of the same compound?
Its IC50 is 14.4 µM.

And the IC50 [5]?
Its IC50 is 14.4 µM.

Which results are given for `Cc1cccc(Nc2nc3nonc3nc2N/N=C/c2ccc(-c3ccc(Cl)c([N+](=O)[O-])c3)o2)c1C`?
IC50 [1]: 4.8 µM; IC50 [2]: 7.2 µM

With `Oc1c(CN2CCCC2)cc(COCc2ccccc2)c2cccnc12` as the compound, how does the IC50 [7] read?
The IC50 was 2.5 µM.

What about the IC50 [8] of the same compound?
Its IC50 is 1.6 µM.

And the IC50 [9]?
The IC50 was 3.2 µM.

What about the IC50 [10] of the same compound?
Its IC50 is 0.7 µM.

And the IC50 [11]?
Its IC50 is 3.4 µM.

For `COc1cccc(Nc2nc3ccccc3nc2Nc2cccc(OC)c2OC)c1OC`, which IC50 [12] is on record?
Its IC50 is 17.6 µM.

And the IC50 [1]?
The IC50 was 24.8 µM.

Which results are given for `N#Cc1c(-c2ccccc2)cc(-c2ccc(OCc3ccc(F)cc3)cc2)nc1N`?
IC50 [3]: > 100 µM; IC50 [4]: > 100 µM; IC50 [5]: > 100 µM

What does the source list for `N#Cc1c(-c2ccc(Cl)cc2)cc(-c2ccc(OCc3ccc(F)cc3)cc2)nc1N`?
IC50 [3]: > 100 µM; IC50 [4]: > 100 µM; IC50 [5]: > 100 µM

What does the source list for `COc1ccc(-c2cc(-c3ccc(OCc4ccc(F)cc4)cc3)nc(N)c2C#N)cc1`?
IC50 [3]: > 100 µM; IC50 [4]: > 100 µM; IC50 [5]: > 100 µM

How did the IC50 [3] turn out when `N#Cc1c(-c2ccccc2)cc(-c2ccc(OCc3ccc(F)cc3)cc2)[nH]c1=O` was run?
The IC50 was 14.4 µM.

What about the IC50 [4] of the same compound?
Its IC50 is 14.4 µM.

And the IC50 [5]?
Its IC50 is 14.4 µM.

Reference: ChEMBL document CHEMBL5375997, “Small Molecule Inhibitors Targeting the "Undruggable" Survivin: The Past, Present, and Future from a Medicinal Chemist's Perspective” (J Med Chem, 2023)
